Test results: ChEMBL document CHEMBL5724914, “Linking interpersonal differences in gut microbiota composition and drug biotransformation activity” (2024)

Assays:
[1] = (§1) The drug is tested on WLS-310 corresponding to human gut metagenome with ENA study accession number: PRJEB37062 and ENA sample accession number: ERS12561785 for biotransformation under anaerobic condition. The drug concentrations were measured over 9 timepoints collected between 0 and 24 hours of incubation by liquid-chromatography-coupled mass spectrometry (LC–MS); details: 2 µM
[2] = human gut metagenome, 24 h, 2 µM
[3] = as §1, with “Z-030” for “WLS-310”, “mouse” for “human”, “ERS12561829” for “ERS12561785”; details: 2 µM
[4] = human gut metagenome, 24 h, 2 µM; remark: listed apart in the source
[5] = as §1, with “WLS-010” for “WLS-310”, “ERS12561743” for “ERS12561785”; details: 2 µM
[6] = human gut metagenome, 24 h, 2 µM; remark: listed apart in the source
[7] = as §1, with “Z-006” for “WLS-310”, “mouse” for “human”, “ERS12561806” for “ERS12561785”; details: 2 µM
[8] = as §1, with “WLS-086” for “WLS-310”, “ERS12561752” for “ERS12561785”; details: 2 µM
[9] = as §1, with “WLS-170” for “WLS-310”, “ERS12561762” for “ERS12561785”; details: 2 µM
[10] = as §1, with “WLS-039” for “WLS-310”, “ERS12561746” for “ERS12561785”; details: 2 µM
[11] = human gut metagenome, 24 h, 2 µM; remark: listed apart in the source
[12] = human gut metagenome, 24 h, 2 µM; remark: listed apart in the source
[13] = as §1, with “Z-018” for “WLS-310”, “pig” for “human”, “ERS12561817” for “ERS12561785”; details: 2 µM
[14] = human gut metagenome, 24 h, 2 µM; remark: listed apart in the source
[15] = as §1, with “Z-028” for “WLS-310”, “mouse” for “human”, “ERS12561827” for “ERS12561785”; details: 2 µM
[16] = as §1, with “WLS-069” for “WLS-310”, “ERS12561748” for “ERS12561785”; details: 2 µM
[17] = as §1, with “Z-017” for “WLS-310”, “mouse” for “human”, “ERS12561816” for “ERS12561785”; details: 2 µM
[18] = human gut metagenome, 24 h, 2 µM; remark: listed apart in the source
[19] = human gut metagenome, 24 h, 2 µM; remark: listed apart in the source
[20] = as §1, with “WLS-350” for “WLS-310”, “ERS12561789” for “ERS12561785”; details: 2 µM
Further: call rule not given here.

Row | Compound | Bacterial Biotransformation [1] | Bacterial Biotransformation [2] | Bacterial Biotransformation [3] | Bacterial Biotransformation [4] | Bacterial Biotransformation [5] | Bacterial Biotransformation [6] | Bacterial Biotransformation [7] | Bacterial Biotransformation [8] | Bacterial Biotransformation [9] | Bacterial Biotransformation [10] | Bacterial Biotransformation [11] | Bacterial Biotransformation [12] | Bacterial Biotransformation [13] | Bacterial Biotransformation [14] | Bacterial Biotransformation [15] | Bacterial Biotransformation [16] | Bacterial Biotransformation [17] | Bacterial Biotransformation [18] | Bacterial Biotransformation [19] | Bacterial Biotransformation [20]
1 | CCCc1nn(C)c2c(=O)[nH]c(-c3cc(S(=O)(=O)N4CCN(C)CC4)ccc3OCC)nc12.O=C(O)CC(O)(CC(=O)O)C(=O)O [SILDENAFIL CITRATE] | Compound metabolized | Compound NOT metabolized | Compound NOT metabolized | Compound NOT metabolized | Compound NOT metabolized | Compound NOT metabolized | Compound NOT metabolized | Compound metabolized | Compound metabolized | Compound NOT metabolized | Compound metabolized | Compound metabolized | Compound NOT metabolized | Compound NOT metabolized | Compound NOT metabolized | Compound NOT metabolized | Compound NOT metabolized | Compound NOT metabolized | Compound NOT metabolized | Compound NOT metabolized
2 | O=C1NCC2(CCN(CCc3ccccc3)CC2)O1 [FENSPIRIDE] | Compound NOT metabolized | Compound metabolized | Compound NOT metabolized | Compound NOT metabolized | Compound NOT metabolized | Compound NOT metabolized | Compound NOT metabolized | Compound metabolized | Compound NOT metabolized | Compound NOT metabolized | Compound NOT metabolized | Compound NOT metabolized | Compound NOT metabolized | Compound NOT metabolized | Compound NOT metabolized | Compound NOT metabolized | Compound NOT metabolized | Compound NOT metabolized | Compound NOT metabolized | Compound NOT metabolized
3 | O=C(CCCN1CCC(O)(c2ccc(Cl)cc2)CC1)c1ccc(F)cc1 [HALOPERIDOL] | Compound metabolized | Compound NOT metabolized | Compound NOT metabolized | Compound metabolized | Compound NOT metabolized | Compound NOT metabolized | Compound NOT metabolized | Compound metabolized | Compound metabolized | Compound metabolized | Compound metabolized | Compound NOT metabolized | Compound NOT metabolized | Compound metabolized | Compound NOT metabolized | Compound metabolized | Compound NOT metabolized | Compound NOT metabolized | Compound NOT metabolized | Compound NOT metabolized
4 | COc1cc2c(c(OC)c1OC)-c1ccc(OC)c(=O)cc1[C@@H](NC(C)=O)CC2 [COLCHICINE] | Compound metabolized | Compound metabolized | Compound NOT metabolized | Compound metabolized | Compound metabolized | Compound metabolized | Compound NOT metabolized | Compound NOT metabolized | Compound metabolized | Compound metabolized | Compound metabolized | Compound NOT metabolized | Compound NOT metabolized | Compound metabolized | Compound NOT metabolized | Compound metabolized | Compound NOT metabolized | Compound metabolized | Compound metabolized | Compound NOT metabolized
5 | OC(Cn1cncn1)(Cn1cncn1)c1ccc(F)cc1F [FLUCONAZOLE] | Compound metabolized | Compound metabolized | Compound NOT metabolized | Compound metabolized | Compound NOT metabolized | Compound metabolized | Compound NOT metabolized | Compound metabolized | Compound metabolized | Compound NOT metabolized | Compound metabolized | Compound metabolized | Compound NOT metabolized | Compound metabolized | Compound NOT metabolized | Compound metabolized | Compound NOT metabolized | Compound NOT metabolized | Compound metabolized | Compound metabolized
6 | CC(C(=O)O)c1ccc2c(c1)Cc1cccnc1O2 (stereo not given) [PRANOPROFEN] | Compound metabolized | Compound metabolized | Compound metabolized | Compound metabolized | Compound metabolized | Compound metabolized | Compound metabolized | Compound metabolized | Compound metabolized | Compound metabolized | Compound metabolized | Compound metabolized | Compound metabolized | Compound metabolized | Compound metabolized | Compound metabolized | Compound NOT metabolized | Compound metabolized | Compound metabolized | Compound metabolized
7 | CCOc1ccc(NC(C)=O)cc1 [PHENACETIN] | Compound NOT metabolized | Compound NOT metabolized | Compound NOT metabolized | Compound NOT metabolized | Compound NOT metabolized | Compound NOT metabolized | Compound NOT metabolized | Compound NOT metabolized | Compound NOT metabolized | Compound NOT metabolized | Compound NOT metabolized | Compound NOT metabolized | Compound NOT metabolized | Compound NOT metabolized | Compound NOT metabolized | Compound NOT metabolized | Compound NOT metabolized | Compound NOT metabolized | Compound NOT metabolized | Compound NOT metabolized
8 | O=c1n(CCCN2CCN(c3cccc(Cl)c3)CC2)nc2ccccn12 [TRAZODONE] | Compound NOT metabolized | Compound metabolized | Compound NOT metabolized | Compound metabolized | Compound NOT metabolized | Compound metabolized | Compound NOT metabolized | Compound metabolized | Compound NOT metabolized | Compound NOT metabolized | Compound metabolized | Compound metabolized | Compound NOT metabolized | Compound metabolized | Compound NOT metabolized | Compound metabolized | Compound NOT metabolized | Compound NOT metabolized | Compound metabolized | Compound metabolized
